For 6 molecules, IC50 results are on record in US8613914B2, “Peptidomimetic sulfamide compounds and antiviral uses thereof” (Novartis AG, priority 2009, dated 2013).

Each structure is given as a SMILES string.

Chain of HCV NS3-4A serine protease (full-length NS3-4A protein) (P26664 1027-1657): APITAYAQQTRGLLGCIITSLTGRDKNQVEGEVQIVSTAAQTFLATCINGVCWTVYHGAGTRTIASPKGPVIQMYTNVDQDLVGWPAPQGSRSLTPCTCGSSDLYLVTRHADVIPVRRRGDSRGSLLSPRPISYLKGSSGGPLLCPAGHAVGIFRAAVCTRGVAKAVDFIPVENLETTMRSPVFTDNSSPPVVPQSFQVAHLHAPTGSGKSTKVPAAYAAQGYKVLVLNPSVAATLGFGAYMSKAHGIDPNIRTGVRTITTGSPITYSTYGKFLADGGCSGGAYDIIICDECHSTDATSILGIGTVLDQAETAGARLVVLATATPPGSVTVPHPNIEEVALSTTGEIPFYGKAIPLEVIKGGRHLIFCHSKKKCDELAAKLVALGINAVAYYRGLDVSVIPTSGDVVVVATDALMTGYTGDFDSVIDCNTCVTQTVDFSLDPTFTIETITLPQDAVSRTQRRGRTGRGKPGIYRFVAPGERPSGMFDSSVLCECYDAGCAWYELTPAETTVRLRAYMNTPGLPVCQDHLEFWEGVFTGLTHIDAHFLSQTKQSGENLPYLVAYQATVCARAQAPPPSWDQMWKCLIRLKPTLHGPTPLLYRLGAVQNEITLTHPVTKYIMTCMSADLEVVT
Chain of HCV NS3-4A serine protease (full-length NS3-4A protein) (P26664 1658-1711 partner): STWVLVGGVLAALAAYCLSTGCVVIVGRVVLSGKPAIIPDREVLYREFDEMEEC

The target in the assay is HCV NS3-4A serine protease (full-length NS3-4A protein) (Hepatitis C virus genotype 1a (isolate 1) (HCV), UniProt P26664). In words: HCV NS3-4A protease assay. Type of assay: biochemical, HCV genotype 1a. The conditions noted are these: strain HCV-1, fluorogenic peptide substrate, read-out: Protease assay Ex. 12 IC50. How it is done:
The inhibitory activity of certain compounds of Table A against HCV NS3-4A serine protease is determined in a homogenous assay using the full-length NS3-4A protein (genotype 1a, strain HCV-1) and a commercially available internally-quenched fluorogenic peptide substrate as described by Taliani, M., et al. 1996 Anal. Biochem. 240:60-67, which is incorporated by reference in its entirety.
For `C=C[C@@H]1C[C@]1(NC(=O)[C@@H]1C[C@@]2(CN1C(=O)[C@@H](NC(=O)[C@@H](NC(=O)CC1CCCCO1)C1CCCCC1)C(C)(C)C)C(C)(C)C21CCC1)C(=O)NS(=O)(=O)N1CCCC1` (stereo partly drawn) [Compound 179, (5R,8S)-7-[(2S)-2-({cyclohexyl[(tetrahydro-2H-pyran-2-ylacetyl)amino]acetyl}amino)-3,3-dimethylbutanoyl]-10,10-dimethyl-N-{(1R,2S)-1-[(pyrrolidin-1-ylsulfonyl)carbamoyl]-2-vinylcyclopropyl}-7-azadispiro[3.0.4.1]decane-8-carboxamide], the IC50 amounted to 25 nM.
As for `C=C[C@@H]1C[C@]1(NC(=O)[C@@H]1C[C@@]2(CN1C(=O)[C@@H](NC(=O)[C@@H](NC(=O)[C@@H]1CCCCN1C(C)C)C1CCCCC1)C(C)(C)C)C(C)(C)C21CCC1)C(=O)NS(=O)(=O)N(CC)CC(F)F` [Compound 155, (5R,8S)-7-[(2S)-2-{[(2S)-2-cyclohexyl-2-({[(2S)-1-isopropylpiperidin-2-yl]carbonyl}amino)acetyl]amino}-3,3-dimethylbutanoyl]-N-[(1R,2S)-1-({[(2,2-difluoroethyl)(ethyl)amino]sulfonyl}carbamoyl)-2-vinylcyclopropyl]-10,10-dimethyl-7-azadispiro[3.0.4.1]decane-8-carboxamide], the IC50 was 4.4 nM.
With `C=C[C@@H]1C[C@]1(NC(=O)[C@@H]1C[C@@]2(CN1C(=O)[C@@H](NC(=O)[C@@H](NC(=O)[C@H]1CCCN1C(C)C)C1CCCCC1)C(C)(C)C)C(C)(C)C21CCC1)C(=O)NS(=O)(=O)N1CCCC1` [Compound 16, (5R,8S)-7-[(2S)-2-{[(2S)-2-cyclohexyl-2-({[(2R)-1-isopropylpyrrolidin-2-yl]carbonyl}amino)acetyl]amino}-3,3-dimethylbutanoyl]-10,10-dimethyl-N-{(1R,2S)-1-[(pyrrolidin-1-ylsulfonyl)carbamoyl]-2-vinylcyclopropyl}-7-azadispiro[3.0.4.1]decane-8-carboxamide] the figure was 2.3 nM.
For the molecule `C=C[C@@H]1C[C@]1(NC(=O)[C@@H]1C[C@@]2(CN1C(=O)[C@@H](NC(=O)[C@@H](NC(=O)c1ccc3[nH]ccc3c1)C1CCCCC1)C(C)(C)C)C(C)(C)C21CCC1)C(=O)NS(=O)(=O)N1CCCC1` [Compound 190, (5R,8S)-7-[(2S)-2-({cyclohexyl[(1H-indol-5-ylcarbonyl)amino]acetyl}amino)-3,3-dimethylbutanoyl]-10,10-dimethyl-N-{(1R,2S)-1-[(pyrrolidin-1-ylsulfonyl)carbamoyl]-2-vinylcyclopropyl}-7-azadispiro[3.0.4.1]decane-8-carboxamide], the IC50 was 20 nM.
The result for `C=C[C@@H]1C[C@]1(NC(=O)[C@@H]1C[C@@]2(CN1C(=O)[C@@H](NC(=O)[C@@H](NC(=O)[C@@H]1CCCN1CC)c1ccccc1)C(C)(C)C)C(C)(C)C21CCC1)C(=O)NS(=O)(=O)N1CCCC1` [Compound 102, (5R,8S)-7-[(2S)-2-{[(2S)-2-({[(2S)-1-ethylpyrrolidin-2-yl]carbonyl}amino)-2-phenylacetyl]amino}-3,3-dimethylbutanoyl]-10,10-dimethyl-N-{(1R,2S)-1-[(pyrrolidin-1-ylsulfonyl)carbamoyl]-2-vinylcyclopropyl}-7-azadispiro[3.0.4.1]decane-8-carboxamide] reads 8 nM.
The result for `C=C[C@@H]1C[C@]1(NC(=O)[C@@H]1C[C@@]2(CN1C(=O)[C@@H](NC(=O)[C@@H](NC(=O)[C@H]1CCCCN1C(C)C)C1CCCCC1)C(C)(C)C)C(C)(C)C21CCC1)C(=O)NS(=O)(=O)N(C)CCC` [Compound 114, (5R,8S)-7-[(2S)-2-{[(2S)-2-cyclohexyl-2-({[(2R)-1-isopropylpiperidin-2-yl]carbonyl}amino)acetyl]amino}-3,3-dimethylbutanoyl]-10,10-dimethyl-N-[(1R,2S)-1-({[methyl(propyl)amino]sulfonyl}carbamoyl)-2-vinylcyclopropyl]-7-azadispiro[3.0.4.1]decane-8-carboxamide] reads 4.5 nM.

Broadly, the IC50 is the midpoint of a concentration-inhibition curve.
